Measured values reported in ChEMBL document CHEMBL3991601, “The target landscape of clinical kinase drugs” (Science, 2017).
Active and inactive are the calls of the source. On the calls: in the data inactive means no Kd found up to 30 µM.

Legend:
[1] = target: T1, Long-chain-fatty-acid--CoA ligase 5 (Homo sapiens, UniProt Q9ULC5)
T1 sequence (Q9ULC5 whole entry): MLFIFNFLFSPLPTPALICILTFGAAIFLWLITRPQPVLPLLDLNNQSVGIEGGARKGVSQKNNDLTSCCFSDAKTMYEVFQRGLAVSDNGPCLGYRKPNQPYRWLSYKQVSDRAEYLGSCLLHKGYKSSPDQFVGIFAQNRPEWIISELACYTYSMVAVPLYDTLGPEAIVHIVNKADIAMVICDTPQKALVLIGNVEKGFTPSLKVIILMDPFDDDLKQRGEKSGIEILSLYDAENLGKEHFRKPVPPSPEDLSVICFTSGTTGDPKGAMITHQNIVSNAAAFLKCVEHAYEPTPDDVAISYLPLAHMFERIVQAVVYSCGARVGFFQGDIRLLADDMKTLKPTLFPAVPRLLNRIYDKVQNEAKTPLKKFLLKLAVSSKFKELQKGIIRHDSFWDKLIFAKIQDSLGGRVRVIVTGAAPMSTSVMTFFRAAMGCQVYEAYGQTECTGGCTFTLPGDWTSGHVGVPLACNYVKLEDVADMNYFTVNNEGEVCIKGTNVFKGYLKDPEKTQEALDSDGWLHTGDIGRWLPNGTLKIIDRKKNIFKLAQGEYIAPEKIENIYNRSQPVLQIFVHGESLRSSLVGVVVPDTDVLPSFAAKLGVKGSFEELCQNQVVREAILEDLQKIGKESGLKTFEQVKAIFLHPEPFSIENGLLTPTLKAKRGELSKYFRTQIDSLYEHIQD

[2] = target: Uncharacterized aarF domain-containing protein kinase 5 (Homo sapiens, UniProt Q3MIX3)
[3] = target: Dual specificity protein kinase CLK4 (Homo sapiens, UniProt Q9HAZ1)
[4] = target: T2, Electron transfer flavoprotein subunit beta (Homo sapiens, UniProt P38117)
T2 sequence (P38117 whole entry): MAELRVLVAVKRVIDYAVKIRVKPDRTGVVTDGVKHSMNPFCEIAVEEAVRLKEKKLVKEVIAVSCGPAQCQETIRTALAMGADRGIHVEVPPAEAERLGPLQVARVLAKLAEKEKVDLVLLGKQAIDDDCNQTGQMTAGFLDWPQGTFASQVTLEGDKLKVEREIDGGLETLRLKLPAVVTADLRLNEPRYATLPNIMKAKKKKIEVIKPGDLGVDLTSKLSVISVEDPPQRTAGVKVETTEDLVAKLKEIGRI

[5] = target: MAP kinase-activated protein kinase 3 (Homo sapiens, UniProt Q16644)
[6] = target: Serine/threonine-protein kinase PAK 6 (Homo sapiens, UniProt Q9NQU5)
[7] = target: T3, Protein kinase C zeta type (Homo sapiens, UniProt Q05513)
T3 sequence (Q05513 whole entry): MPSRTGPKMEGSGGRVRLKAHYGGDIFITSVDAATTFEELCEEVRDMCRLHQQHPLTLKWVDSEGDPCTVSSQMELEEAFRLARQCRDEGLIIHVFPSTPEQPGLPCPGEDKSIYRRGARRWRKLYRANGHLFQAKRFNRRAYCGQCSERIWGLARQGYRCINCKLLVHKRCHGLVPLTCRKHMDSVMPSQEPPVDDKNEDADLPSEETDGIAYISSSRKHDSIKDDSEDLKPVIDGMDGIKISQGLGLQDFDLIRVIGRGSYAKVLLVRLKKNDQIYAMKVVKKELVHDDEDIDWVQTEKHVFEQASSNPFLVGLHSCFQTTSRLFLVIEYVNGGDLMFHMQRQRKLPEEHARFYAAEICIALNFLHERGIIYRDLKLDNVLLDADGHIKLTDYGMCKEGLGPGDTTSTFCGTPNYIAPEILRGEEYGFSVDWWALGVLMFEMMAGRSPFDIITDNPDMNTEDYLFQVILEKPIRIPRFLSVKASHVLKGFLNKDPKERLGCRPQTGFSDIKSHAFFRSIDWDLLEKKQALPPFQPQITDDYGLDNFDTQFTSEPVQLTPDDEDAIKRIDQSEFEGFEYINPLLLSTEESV

[8] = target: Serine/threonine-protein kinase 24 (Homo sapiens, UniProt Q9Y6E0)
[9] = target: Serine/threonine-protein kinase 38-like (Homo sapiens, UniProt Q9Y2H1)
[10] = target: T4, Dual specificity mitogen-activated protein kinase kinase 4 (Homo sapiens, UniProt P45985)
T4 sequence (P45985 whole entry): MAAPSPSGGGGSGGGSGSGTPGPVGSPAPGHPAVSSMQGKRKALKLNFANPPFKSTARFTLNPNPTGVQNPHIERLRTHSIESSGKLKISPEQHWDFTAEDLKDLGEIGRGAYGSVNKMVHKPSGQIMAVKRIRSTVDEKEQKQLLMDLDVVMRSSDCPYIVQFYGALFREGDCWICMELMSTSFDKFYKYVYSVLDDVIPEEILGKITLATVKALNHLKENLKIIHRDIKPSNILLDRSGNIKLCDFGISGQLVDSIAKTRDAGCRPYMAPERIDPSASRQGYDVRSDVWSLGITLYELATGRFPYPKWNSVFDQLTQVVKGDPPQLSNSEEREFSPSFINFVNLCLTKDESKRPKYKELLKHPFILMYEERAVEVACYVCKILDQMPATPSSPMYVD

[11] = target: Serine/threonine-protein kinase Nek7 (Homo sapiens, UniProt Q8TDX7)
[12] = target: Serine/threonine-protein kinase pim-2 (Homo sapiens, UniProt Q9P1W9)
[13] = target: Cell division cycle 7-related protein kinase (Homo sapiens, UniProt O00311)
[14] = target: T5, UMP-CMP kinase (Homo sapiens, UniProt P30085)
T5 sequence (P30085 whole entry): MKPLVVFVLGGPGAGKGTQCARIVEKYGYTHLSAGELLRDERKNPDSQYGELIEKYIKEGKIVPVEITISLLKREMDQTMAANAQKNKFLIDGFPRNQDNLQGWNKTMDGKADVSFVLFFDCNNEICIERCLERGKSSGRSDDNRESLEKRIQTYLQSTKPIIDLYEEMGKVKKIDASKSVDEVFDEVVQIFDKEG

[15] = target: Dual specificity protein kinase CLK3 (Homo sapiens, UniProt P49761); assay type: subcellular, K-562, COLO 205, SK-N-BE(2) and MV-4-11, Cell lysate; conditions: read-out: Kd apparent
Chain of Dual specificity protein kinase CLK3 (P49761 whole entry): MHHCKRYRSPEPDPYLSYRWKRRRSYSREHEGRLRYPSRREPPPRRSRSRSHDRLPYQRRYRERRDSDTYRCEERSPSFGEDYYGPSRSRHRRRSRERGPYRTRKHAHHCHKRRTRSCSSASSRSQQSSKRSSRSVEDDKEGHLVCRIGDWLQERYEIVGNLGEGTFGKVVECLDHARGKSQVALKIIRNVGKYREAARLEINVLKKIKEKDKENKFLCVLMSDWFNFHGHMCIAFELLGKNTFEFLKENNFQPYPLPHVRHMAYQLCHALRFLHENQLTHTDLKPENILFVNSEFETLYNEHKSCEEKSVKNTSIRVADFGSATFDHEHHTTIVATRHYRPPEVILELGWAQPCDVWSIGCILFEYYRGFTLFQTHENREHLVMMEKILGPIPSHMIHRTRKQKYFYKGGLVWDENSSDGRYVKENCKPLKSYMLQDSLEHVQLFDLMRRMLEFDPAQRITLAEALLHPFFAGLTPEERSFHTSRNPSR

Chain of Serine/threonine-protein kinase 38-like (Q9Y2H1 whole entry): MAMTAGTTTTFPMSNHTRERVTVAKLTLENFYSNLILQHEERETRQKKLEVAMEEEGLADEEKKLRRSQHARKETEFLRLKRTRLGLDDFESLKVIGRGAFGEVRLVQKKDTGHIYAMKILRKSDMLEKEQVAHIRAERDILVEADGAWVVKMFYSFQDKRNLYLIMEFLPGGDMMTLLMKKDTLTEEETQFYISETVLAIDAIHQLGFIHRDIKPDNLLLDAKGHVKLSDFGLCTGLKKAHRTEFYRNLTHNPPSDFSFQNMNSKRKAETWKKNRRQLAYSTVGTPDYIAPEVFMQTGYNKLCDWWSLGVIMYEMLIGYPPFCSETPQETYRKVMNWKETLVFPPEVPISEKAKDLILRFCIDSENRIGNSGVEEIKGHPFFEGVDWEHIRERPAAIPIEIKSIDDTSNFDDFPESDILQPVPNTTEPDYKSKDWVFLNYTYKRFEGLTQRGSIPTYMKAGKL
Chain of Dual specificity protein kinase CLK4 (Q9HAZ1 whole entry): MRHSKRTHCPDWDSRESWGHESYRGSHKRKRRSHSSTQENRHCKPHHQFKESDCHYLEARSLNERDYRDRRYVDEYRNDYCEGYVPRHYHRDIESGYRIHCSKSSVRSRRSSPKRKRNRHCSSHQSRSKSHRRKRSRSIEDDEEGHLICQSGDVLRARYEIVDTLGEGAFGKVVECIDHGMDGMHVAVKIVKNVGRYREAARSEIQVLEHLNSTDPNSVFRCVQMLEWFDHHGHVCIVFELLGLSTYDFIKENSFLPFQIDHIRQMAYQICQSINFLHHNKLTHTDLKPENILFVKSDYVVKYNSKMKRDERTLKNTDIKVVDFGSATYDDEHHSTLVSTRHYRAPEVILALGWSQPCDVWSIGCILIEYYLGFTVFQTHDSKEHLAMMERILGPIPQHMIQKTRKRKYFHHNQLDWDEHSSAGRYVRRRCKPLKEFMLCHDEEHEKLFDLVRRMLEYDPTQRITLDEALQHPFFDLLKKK
Chain of Serine/threonine-protein kinase 24 (Q9Y6E0 whole entry): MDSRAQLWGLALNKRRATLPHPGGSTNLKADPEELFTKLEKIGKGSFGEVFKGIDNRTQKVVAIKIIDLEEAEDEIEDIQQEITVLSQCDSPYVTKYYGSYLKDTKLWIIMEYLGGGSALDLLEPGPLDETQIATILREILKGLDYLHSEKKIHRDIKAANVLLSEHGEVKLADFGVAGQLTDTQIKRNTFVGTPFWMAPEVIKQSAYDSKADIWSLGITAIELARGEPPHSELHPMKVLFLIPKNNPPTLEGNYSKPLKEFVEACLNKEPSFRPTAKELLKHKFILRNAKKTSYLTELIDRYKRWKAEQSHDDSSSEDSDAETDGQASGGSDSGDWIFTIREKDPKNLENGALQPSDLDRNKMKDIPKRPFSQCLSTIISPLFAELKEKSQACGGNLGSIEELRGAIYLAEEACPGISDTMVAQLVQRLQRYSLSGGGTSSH
Chain of Serine/threonine-protein kinase PAK 6 (Q9NQU5 whole entry): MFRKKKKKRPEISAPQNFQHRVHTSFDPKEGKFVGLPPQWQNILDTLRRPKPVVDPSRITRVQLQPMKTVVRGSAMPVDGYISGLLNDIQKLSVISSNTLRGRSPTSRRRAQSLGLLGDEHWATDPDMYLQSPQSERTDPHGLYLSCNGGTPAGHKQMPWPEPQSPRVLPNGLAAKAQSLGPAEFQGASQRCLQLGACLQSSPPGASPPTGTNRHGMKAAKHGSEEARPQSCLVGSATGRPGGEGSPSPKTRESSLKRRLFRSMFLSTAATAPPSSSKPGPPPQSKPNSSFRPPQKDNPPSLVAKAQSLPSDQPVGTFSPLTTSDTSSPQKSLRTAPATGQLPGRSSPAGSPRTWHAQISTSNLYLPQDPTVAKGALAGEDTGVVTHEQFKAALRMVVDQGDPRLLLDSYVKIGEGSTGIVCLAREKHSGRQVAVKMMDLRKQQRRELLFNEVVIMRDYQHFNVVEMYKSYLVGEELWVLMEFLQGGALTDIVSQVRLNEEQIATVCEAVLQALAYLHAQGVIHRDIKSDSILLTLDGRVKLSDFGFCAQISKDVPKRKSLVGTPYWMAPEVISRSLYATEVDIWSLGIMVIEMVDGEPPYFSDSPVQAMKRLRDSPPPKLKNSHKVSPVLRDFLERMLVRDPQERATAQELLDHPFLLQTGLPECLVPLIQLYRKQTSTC
Chain of Serine/threonine-protein kinase pim-2 (Q9P1W9 whole entry): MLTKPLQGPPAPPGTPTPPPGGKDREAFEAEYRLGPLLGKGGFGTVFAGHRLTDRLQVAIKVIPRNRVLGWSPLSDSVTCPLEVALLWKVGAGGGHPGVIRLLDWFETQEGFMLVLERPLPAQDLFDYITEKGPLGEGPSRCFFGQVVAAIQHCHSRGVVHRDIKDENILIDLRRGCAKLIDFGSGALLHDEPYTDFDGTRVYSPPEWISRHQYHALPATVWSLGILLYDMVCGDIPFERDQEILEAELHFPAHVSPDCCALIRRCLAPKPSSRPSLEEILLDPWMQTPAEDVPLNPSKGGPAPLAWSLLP
Chain of Serine/threonine-protein kinase Nek7 (Q8TDX7 whole entry): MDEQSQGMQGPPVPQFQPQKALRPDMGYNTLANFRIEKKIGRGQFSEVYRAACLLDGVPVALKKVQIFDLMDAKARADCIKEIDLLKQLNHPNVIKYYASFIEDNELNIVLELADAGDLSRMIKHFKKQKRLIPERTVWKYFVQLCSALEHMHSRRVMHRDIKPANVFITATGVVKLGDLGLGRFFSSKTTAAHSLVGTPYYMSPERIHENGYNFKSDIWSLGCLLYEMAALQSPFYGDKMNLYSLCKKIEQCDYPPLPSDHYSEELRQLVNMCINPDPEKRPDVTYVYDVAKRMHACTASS
Chain of Cell division cycle 7-related protein kinase (O00311 whole entry): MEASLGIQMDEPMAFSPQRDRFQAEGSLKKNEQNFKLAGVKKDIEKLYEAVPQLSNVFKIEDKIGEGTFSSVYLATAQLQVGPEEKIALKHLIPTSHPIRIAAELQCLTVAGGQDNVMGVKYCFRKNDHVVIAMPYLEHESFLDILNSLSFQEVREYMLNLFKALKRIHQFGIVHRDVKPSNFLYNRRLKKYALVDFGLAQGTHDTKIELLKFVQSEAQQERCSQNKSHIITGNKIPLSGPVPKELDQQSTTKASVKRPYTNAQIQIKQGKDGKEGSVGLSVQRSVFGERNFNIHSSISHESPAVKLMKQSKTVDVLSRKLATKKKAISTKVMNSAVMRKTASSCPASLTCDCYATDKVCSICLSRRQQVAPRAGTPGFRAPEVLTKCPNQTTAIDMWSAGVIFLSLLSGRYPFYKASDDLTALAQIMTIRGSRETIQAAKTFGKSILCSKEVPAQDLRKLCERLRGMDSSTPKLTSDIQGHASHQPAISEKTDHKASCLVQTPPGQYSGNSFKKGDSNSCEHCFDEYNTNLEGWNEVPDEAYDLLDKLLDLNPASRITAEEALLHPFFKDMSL
Chain of Uncharacterized aarF domain-containing protein kinase 5 (Q3MIX3 whole entry, the tested form may be a part): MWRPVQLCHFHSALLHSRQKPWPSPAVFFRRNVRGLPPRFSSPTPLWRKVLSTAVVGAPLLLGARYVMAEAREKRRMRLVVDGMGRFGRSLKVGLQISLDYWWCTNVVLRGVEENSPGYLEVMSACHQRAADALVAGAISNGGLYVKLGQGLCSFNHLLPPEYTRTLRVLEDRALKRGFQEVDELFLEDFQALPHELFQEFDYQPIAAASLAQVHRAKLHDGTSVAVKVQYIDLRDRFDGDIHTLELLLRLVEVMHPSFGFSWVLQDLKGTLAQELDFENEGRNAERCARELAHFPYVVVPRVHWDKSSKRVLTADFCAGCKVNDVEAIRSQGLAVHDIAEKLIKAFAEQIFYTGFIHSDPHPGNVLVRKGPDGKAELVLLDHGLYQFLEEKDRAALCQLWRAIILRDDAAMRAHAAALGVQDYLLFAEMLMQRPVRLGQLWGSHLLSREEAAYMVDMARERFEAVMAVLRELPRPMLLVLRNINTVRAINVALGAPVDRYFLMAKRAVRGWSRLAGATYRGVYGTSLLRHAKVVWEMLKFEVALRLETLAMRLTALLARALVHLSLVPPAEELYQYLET
Chain of MAP kinase-activated protein kinase 3 (Q16644 whole entry): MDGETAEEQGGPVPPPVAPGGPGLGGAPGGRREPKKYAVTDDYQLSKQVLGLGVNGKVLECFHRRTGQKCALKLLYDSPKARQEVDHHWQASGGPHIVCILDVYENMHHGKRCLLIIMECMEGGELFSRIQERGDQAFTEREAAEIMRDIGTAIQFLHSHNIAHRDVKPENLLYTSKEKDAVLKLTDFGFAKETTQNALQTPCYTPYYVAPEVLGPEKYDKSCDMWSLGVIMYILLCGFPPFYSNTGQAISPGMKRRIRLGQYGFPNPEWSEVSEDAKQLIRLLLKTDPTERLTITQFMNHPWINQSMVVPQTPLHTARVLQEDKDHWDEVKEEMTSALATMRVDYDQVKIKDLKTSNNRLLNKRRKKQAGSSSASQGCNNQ

Row | Kd [1] | Kd [2] | Kd [3] | Kd [4] | Kd [5] | Kd [6] | Kd [7] | Kd [8] | Kd [9] | Kd [10] | Kd [11] | Kd [12] | Kd [13] | Kd [14] | Kd [15] | Structure (SMILES)
1 | > 30 µM (inactive) | – | – | – | > 30 µM (inactive) | > 30 µM (inactive) | – | – | > 30 µM (inactive) | > 30 µM (inactive) | > 30 µM (inactive) | > 30 µM (inactive) | – | – | – | Nc1ncnc2c1c(-c1cccc(OCc3ccccc3)c1)cn2[C@H]1C[C@@H](CN2CCC2)C1 [AEW-541]
2 | > 30 µM (inactive) | > 30 µM (inactive) | > 30 µM (inactive) | > 30 µM (inactive) | > 30 µM (inactive) | > 30 µM (inactive) | > 30 µM (inactive) | – | > 30 µM (inactive) | – | – | > 30 µM (inactive) | > 30 µM (inactive) | – | – | COCC(=O)NC/C=C/c1ccc2ncnc(Nc3ccc(Oc4ccc(C)nc4)c(C)c3)c2c1 [CP-724714]
3 | > 30 µM (inactive) | – | – | – | – | – | – | 0.019 µM | > 30 µM (inactive) | > 30 µM (inactive) | – | – | – | – | > 30 µM (inactive) | CC(=O)NCC(=O)N1[C@@H]2CC[C@H]1c1ccc(Nc3ncc(C(F)(F)F)c(NC4CCC4)n3)cc12 [PF-03814735]
4 | > 30 µM (inactive) | – | – | – | – | > 30 µM (inactive) | > 30 µM (inactive) | > 30 µM (inactive) | > 30 µM (inactive) | > 30 µM (inactive) | – | > 30 µM (inactive) | > 30 µM (inactive) | – | – | CCS(=O)(=O)c1cccc(-c2cc(C(=O)NC3CCN(C)CC3)c(C)c3[nH]c4ncc(C)cc4c23)c1 [TAK-901]

The remaining lines, values behind:

Row | Structure (SMILES) | Kd [1] | Kd [2] | Kd [3] | Kd [4] | Kd [5] | Kd [6] | Kd [7] | Kd [8] | Kd [9] | Kd [10] | Kd [11] | Kd [12] | Kd [13] | Kd [14] | Kd [15]
5 | Cc1nc2cc(-c3nn(C(C)C)c4ncnc(N)c34)ccc2o1 | > 30 µM (inactive) | > 30 µM (inactive) | > 30 µM (inactive) | > 30 µM (inactive) | > 30 µM (inactive) | > 30 µM (inactive) | > 30 µM (inactive) | > 30 µM (inactive) | > 30 µM (inactive) | – | – | – | – | – | –
6 | Cn1cnc2c(F)c(Nc3ccc(Br)cc3F)c(C(=O)NOCCO)cc21 [BINIMETINIB] | > 30 µM (inactive) | > 30 µM (inactive) | > 30 µM (inactive) | > 30 µM (inactive) | > 30 µM (inactive) | – | – | > 30 µM (inactive) | > 30 µM (inactive) | > 30 µM (inactive) | – | > 30 µM (inactive) | > 30 µM (inactive) | > 30 µM (inactive) | –
7 | O=C(Nc1nc2cccc(-c3ccc(CN4CCS(=O)(=O)CC4)cc3)n2n1)C1CC1 [FILGOTINIB] | – | > 30 µM (inactive) | > 30 µM (inactive) | > 30 µM (inactive) | – | > 30 µM (inactive) | – | > 30 µM (inactive) | > 30 µM (inactive) | > 30 µM (inactive) | > 30 µM (inactive) | > 30 µM (inactive) | – | > 30 µM (inactive) | –
8 | CNC(=O)c1nn(C)c2c1C(C)(C)Cc1cnc(Nc3ccc(N4CCN(C)CC4)cc3)nc1-2 [MILCICLIB] | > 30 µM (inactive) | > 30 µM (inactive) | 0.018 µM (active) | – | – | > 30 µM (inactive) | > 30 µM (inactive) | > 30 µM (inactive) | > 30 µM (inactive) | > 30 µM (inactive) | > 30 µM (inactive) | > 30 µM (inactive) | > 30 µM (inactive) | – | > 30 µM (inactive)
9 | CO[C@H]1C[C@@H]2CC[C@@H](C)[C@@](O)(O2)C(=O)C(=O)N2CCCC[C@H]2C(=O)O[C@H]([C@H](C)C[C@@H]2CC[C@@H](OP(C)(C)=O)[C@H](OC)C2)CC(=O)[C@H](C)/C=C(\C)[C@@H](O)[C@@H](OC)C(=O)[C@H](C)C[C@H](C)/C=C/C=C/C=C/1C [RIDAFOROLIMUS] | > 30 µM (inactive) | > 30 µM (inactive) | > 30 µM (inactive) | > 30 µM (inactive) | – | – | > 30 µM (inactive) | > 30 µM (inactive) | > 30 µM (inactive) | > 30 µM (inactive) | > 30 µM (inactive) | > 30 µM (inactive) | > 30 µM (inactive) | – | > 30 µM (inactive)
10 | N#CC1(c2ccc(NC(=O)c3cccnc3NCc3ccncc3)cc2)CCCC1 [RIVOCERANIB] | > 30 µM (inactive) | > 30 µM (inactive) | > 30 µM (inactive) | > 30 µM (inactive) | – | > 30 µM (inactive) | > 30 µM (inactive) | > 30 µM (inactive) | > 30 µM (inactive) | – | > 30 µM (inactive) | – | > 30 µM (inactive) | > 30 µM (inactive) | > 30 µM (inactive)
11 | CO[C@H]1C[C@@H]2CC[C@@H](C)[C@@](O)(O2)C(=O)C(=O)N2CCCC[C@H]2C(=O)O[C@H]([C@H](C)C[C@@H]2CC[C@@H](OC(=O)C(C)(CO)CO)[C@H](OC)C2)CC(=O)[C@H](C)/C=C(\C)[C@@H](O)[C@@H](OC)C(=O)[C@H](C)C[C@H](C)/C=C/C=C/C=C/1C [TEMSIROLIMUS] | > 30 µM (inactive) | – | > 30 µM (inactive) | > 30 µM (inactive) | > 30 µM (inactive) | > 30 µM (inactive) | > 30 µM (inactive) | > 30 µM (inactive) | > 30 µM (inactive) | > 30 µM (inactive) | > 30 µM (inactive) | > 30 µM (inactive) | > 30 µM (inactive) | > 30 µM (inactive) | > 30 µM (inactive)
12 | O=C1NC(=O)[C@@H](c2cn3c4c(cccc24)CCC3)[C@@H]1c1c[nH]c2ccccc12 [TIVANTINIB] | > 30 µM (inactive) | > 30 µM (inactive) | > 30 µM (inactive) | > 30 µM (inactive) | > 30 µM (inactive) | > 30 µM (inactive) | > 30 µM (inactive) | – | > 30 µM (inactive) | – | > 30 µM (inactive) | > 30 µM (inactive) | – | > 30 µM (inactive) | > 30 µM (inactive)
13 | C[C@@H](NC(=O)c1ncnc(N)c1Cl)c1ncc(C(=O)Nc2cc(C(F)(F)F)c(Cl)cn2)s1 [TOVORAFENIB] | – | > 30 µM (inactive) | > 30 µM (inactive) | – | – | > 30 µM (inactive) | > 30 µM (inactive) | > 30 µM (inactive) | > 30 µM (inactive) | 0.146 µM | – | > 30 µM (inactive) | > 30 µM (inactive) | – | > 30 µM (inactive)
